System: human three-dimensional cultured epidermis model
Assay: Skin irritation of fatty acid alkali metal salts, OECD TG439 (Experimental Example 3)
Type: cell-based
Details: 0.1 M fatty acid aqueous solution, 25 μL, 15 minutes exposure, N=3; ≤50% viability irritating
Protocol: The skin irritation of alkali metal salts of various fatty acids (potassium laurate, potassium myristate, potassium palmitate, and potassium oleate) was evaluated by the following method based on OECD Test Guideline TG439. […]

Structure (SMILES): CCCCCCCCCCCC(=O)[O-].[K+] [lauric acid salt, potassium laurate]
- Skin irritation determination from cell viability (FIG. 3): irritating
